From patent US20220348572A1, “BRIDGED HETEROCYCLYL-SUBSTITUTED PYRIMIDINE COMPOUND, PREPARATION METHOD THEREFOR, AND PHARMACEUTICAL USE THEREOF” (The National Institutes of Pharmaceutical R&D Co., Ltd., priority 2019, published 2022) come the findings set out here.

The target in one data set is T1, JAK1 kinase (Homo sapiens, UniProt P23458).
T1 construct: purchased Invitrogen PV4744
Put plainly: In vitro inhibitory activity on JAK1 kinase (ADP-Glo Kinase Assay). As to conditions: JAK1 kinase 4 nM, 1 mM ATP. The format is biochemical. In a few lines: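 JAK1 (4 nM final) preincubated with compound 15 min at 25° C., then substrate mix (1 mM ATP, IRS1 0.05 mg/ml) added for 60 min at 25° C. ADP-Glo luminescence read-out; top concentration 10 μM, 3-fold, 10 points, duplicates; IC50 reported in ranged classes.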
In general terms: ADP-Glo turns the ADP formed in a reaction into a luminescent signal.

For data set [1], the system named is IFN-2α-stimulated TYK2/JAK1-mediated pathway (pSTAT3). In words: Inhibition of STAT3 signaling pathway of human whole blood (IFN-2α-induced pSTAT3, flow cytometry). It counts as cell-based. The procedure: Test Example 3: Inhibition Effect of the Compounds of the Present Invention on STAT3 Signaling Pathway of Human Whole Blood
Sample preparation: The compounds of the present invention and the control were dissolved in DMSO solvent respectively to formulate into 10 mM initial liquid. The maximum concentration of the compound was 10 μM, 3-fold dilution, 10 concentration gradients, and duplicate wells for each concentration gradient.
Experimental process: 20 μL of the compound of the present invention was added to a flow cytometer tube (BD, 352052) containing 180 μL anticoagulant sodium heparin. 20 μL PBS was added to the control. The sample was incubated at 37° C. for 30 min. 2 μL stimulating factor was added and then incubated at 37° C. for 20 min. 1 mL erythrocyte lysate was rapidly added, and the sample was repeatedly inverted 5-10 times or vortexed and then incubated at 37° C. for 10 min. The sample was centrifuged at 600 g for 6-8 min. The supernatant was discarded. The precipitate was vortexed until suspending. The cells were washed with 3 mL PBS and centrifuged at 600 g for 6-8 min. The supernatant was discarded. The precipitate was vortexed until suspending. 1 mL of membrane breaking solution was added, and the system was mixed gently, incubated on ice for 30 min, and centrifuged at 600 g for 6-8 min. The supernatant was discarded. The precipitate was vortexed until suspending. The cells were washed. 3 mL PBS was added. The system was centrifuged at 600 g for 6-8 min. The supernatant was discarded. The precipitate was vortexed untile suspending. The process was repeated twice. 100 μL PBS was added to each staining tube. IFN-2a was added for stimulation, and CD3 and pSTAT3 antibodies […] were added. The system was mixed well, protected from light and incubated at room temperature for 60 min. The cells were washed. 3 mL PBS was added. The system was centrifuged at 600 g for 6-8 min. The supernatant was discarded. The precipitate was vortexed until suspending. The precipitate was suspended in 150 μL in the dark for the flow cytometry analysis. The IC50 (half inhibitory concentration) of the compounds was obtained by using the following non-linear fitting equation:
Y=Bottom+(Top−Bottom)/(1+10^((Log IC50−X)*HillSlope));
X: Log value of the concentration of the compound;
Bottom: The minimum value, Top: The maximum value, HillSlope: Slope
The inhibition effect of by the compounds of the present invention on the IFN-2α-stimulated TYK2/JAK1-mediated pathway is shown in Table 3. IC50 value of 0-100 nM is shown as A, IC50 value of 100-300 nM is shown as B, IC50 value of 300-1000 nM is shown as C, IC50 value which is greater than 1000 nM is shown as D. NT means not tested.
(In flow cytometry, cells or beads pass a laser one at a time.)

The next data set concerns the target T2, TYK2 kinase (Homo sapiens, UniProt P29597).
T2 sequence (P29597 897-1187 limits assumed): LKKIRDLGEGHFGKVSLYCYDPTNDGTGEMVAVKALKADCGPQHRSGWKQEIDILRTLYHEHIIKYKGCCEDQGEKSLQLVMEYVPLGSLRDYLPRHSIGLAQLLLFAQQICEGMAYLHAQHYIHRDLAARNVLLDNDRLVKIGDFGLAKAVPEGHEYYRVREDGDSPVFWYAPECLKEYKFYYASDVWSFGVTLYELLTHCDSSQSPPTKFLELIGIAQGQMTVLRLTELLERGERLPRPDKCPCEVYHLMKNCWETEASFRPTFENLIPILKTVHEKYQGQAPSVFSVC
In words: In vitro inhibitory activity on Tyk2 kinase (ADP-Glo Kinase Assay). It counts as biochemical. As to conditions: TYK2 kinase 4 nM, 1 mM ATP. The method, then:
Test Example 2: Determination of In Vitro Inhibitory Activity of the Compounds of the Present Invention on Tyk2 Kinase Experimental materials: TYK2 (Invitrogen, PV4790), ATP (Promega, V915B), ADP-Glo Kinase Assay (Promega, V9101), IRS1 (Signalchem, 140-58-1000). Sample preparation: The compounds of the present invention and the control product were dissolved in DMSO solvent respectively to formulate into 10 mM initial liquid. The maximum concentration of the compound was 10 μM, 3-fold dilution, 10 concentration gradients, and duplicate wells for each concentration gradient. Experimental process: 0.1 μL of the compound to be tested was transferred into a 384 reaction plate (PE, 6007290) via Echo and centrifuged at 1000 rpm/min for 1 min. 5 μL TYK2 kinase (final concentration of 4 nM) was transferred into the 384 reaction plate, which was then centrifuged at 1000 rpm/min for 1 min, and incubated at 25° C. for 15 min. 5 μL substrate mixture (1 mM ATP, IRS1 0.05 mg/ml, kinase buffer solution) was transferred into the 384 reaction plate, which was then centrifuged at 1000 rpm/min for 1 min, and incubated at 25° C. for 60 min. 10 μL ADP-Glo was transferred into the 384 reaction plate, which was then centrifuged at 1000 rpm/min for 1 min, and incubated at 25° C. for 40 min. 20 μL test solution was transferred into the 384 reaction plate, which was centrifuged at 1000 rpm/min for 1 min and incubated at 25° C. for 40 min. RLU (Relative luminescence unit) signal was read by using an Envision multifunctional plate reader. The signal intensity was used to characterize the degree of the kinase activity. […] IC50 value of 0-100 nM is shown as A, IC50 value of 100-300 nM is shown as B, IC50 value of 300-1000 nM is shown as C, and IC50 value which is greater than 1000 nM is shown as D. NT means not tested.

Data set [2] can be described thus: Pharmacokinetic study in rats after oral administration. The format is in vivo, SD rats. The procedure:
Experimental Example 5: Pharmacokinetic Studies of the Compounds of Example 1, Example 1-a, Example 1-b and Example 3 in Rats In order to investigate the blood concentration and pharmacokinetic parameters of the compounds of the present invention after oral administration, the corresponding LC/MS/MS assay and plasma treatment methods were developed for the compounds of the Experimental Examples. […] Male SD rats were orally administered at a dose of 5 mg/kg. Blood was orbitally collected and anticoagulated with sodium heparin. The plasma was deproteinated with acetonitrile. The samples were analyzed by LC/MS/MS method. Wherein, AUC<1000 μg/L*h is shown as C, AUC between 1000-2000 μg/L*h is shown as B, AUC>2000 μg/L*h is shown as A; Cmax<600 μg/L is shown as C, Cmax between 600-900 μg/L is shown as B, and Cmax>900 μg/L is shown as A.

Setting [3] is: rat, male SD rats, oral 5 mg/kg, plasma.

T1 sequence (P23458 866-1154 limits assumed): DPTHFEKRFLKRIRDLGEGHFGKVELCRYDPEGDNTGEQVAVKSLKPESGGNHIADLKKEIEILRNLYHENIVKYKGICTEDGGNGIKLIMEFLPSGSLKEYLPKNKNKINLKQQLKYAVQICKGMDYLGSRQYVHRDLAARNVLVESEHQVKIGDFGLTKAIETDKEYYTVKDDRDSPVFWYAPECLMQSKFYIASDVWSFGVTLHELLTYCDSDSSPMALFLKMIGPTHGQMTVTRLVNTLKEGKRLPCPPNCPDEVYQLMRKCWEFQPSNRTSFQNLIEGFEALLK

What is called IC50 is the midpoint of a concentration-inhibition curve. By AUC(0-t) is commonly meant exposure summed from dosing to a finite time, without extrapolation to infinity. The Cmax is the maximum level reached in the sampled fluid or tissue. As to `Cn1cc(Nc2nccc(C3=C[C@@H]4CC[C@H](C3)N4C(=O)[C@@H]3CC3(F)F)n2)cn1` (single isomer, unassigned) [Compound 1-a], the concentration for half-maximal inhibition (IC50) (on JAK1 kinase; in data set [1]; on TYK2 kinase) was < 100 nM throughout. The “pharmacokinetic parameters (in words)” value in data set [2] (oral administration in SD rats) was “good pharmacokinetic parameters”. This compound registered an exposure AUC(0-t) in data set [2] (setting [3]) of 1 to 2 µg·h/mL. For the same compound, the maximum concentration (Cmax) in data set [2] (setting [3]) lay in the range of 0.6 to 0.9 µg/mL.

On to `Cn1cc(Nc2nccc(C3=CC4CCC(C3)N4C(=O)C3CC3F)n2)cn1` (stereo not shown) [Compound 51, (2-fluorocyclopropyl)(3-(2-((1-methyl-1H-pyrazol-4-yl)amino)pyrimidin-4-yl)-8-azabicyclo[3.2.1]oct-2-en-8-yl)methanone], for which the IC50 (against JAK1 kinase; in data set [1]) was < 100 nM each time.

Consider `Cn1cc(Nc2nccc(C3=CC4CCC(C3)N4C(=O)NC3(C#N)CC3)n2)cn1` (stereo not shown) [Compound 54, N-(1-cyanocyclopropyl)-3-(2-((1-methyl-1H-pyrazol-4-yl)amino)pyrimidin-4-yl)-8-azabicyclo[3.2.1]oct-2-ene-8-carboxamide], for which the values for the half-inhibitory concentration (IC50) (on JAK1 kinase; in data set [1]) were > 1000 nM and < 100 nM, respectively.
